Test results taken from US20130338130A1 (priority 2009, published 2013).
Where two headings read alike, the source gives them in different places.

Tested on: ATCC strain 43300 Staphylococcus aureus
Settings: for recovery after enrichment in Mueller-Hinton broth: 1 cfu detection limit
Procedure: Additional antibiotic was added every 24 hours. The growth periods tested were 24 (see FIG. 4), 48, 72, 96 and 120 hours.
USP<51> Antimicrobial Effectiveness protocol was used as the template experimental paradigm. […] All concentrations were plated out to the 10^−7 dilutions to ascertain cfu/ml. […] Additional antibiotic was added at the initial concentration every 24 hours.
ATCC strain 43300 Staphylococcus aureus was streaked out for isolations. An isolated colony was chosen, streaked again and incubated. Isolate was chosen and then diluted to a McFarland standard of one. The estimated value was then taken to inoculate tubes containing growth media and 12, 30 or 60 μg/ml oxacillin with approximately 10^5 cfu/ml. These tubes were incubated and plated for counting cfu. A clone having no observed log reduction in cfu was selected for the rest of the experiment.
Material was calculated on a 10 ml volume. Sterile oxacillin was added to each experimental condition to a final concentration of 12, 30 or 60 μg/ml antibiotic.
All tubes were then inoculated with a dilution of the selected ATCC strain 43300 Staphylococcus aureus clone giving a final level of colony forming units of 3.3×10^5/ml (log=5.52). The tubes were incubated at 25° C. and mixed periodically. Antibiotic was re-inoculated every 24 hours at the initial concentration to maintain pressure on the organism. Plating was done at 24, 48, 72, and 120 hours. Each condition was plated by diluting 1 ml of growth material into 9 ml of MLB diluent broth. […] This mixture was serial diluted down to 10^−7 with 1 ml placed in triplicate in a sterile petri dish at each dilution point. 20 mls of TSA was added to each dilution, swirled and allowed to solidify. All dilutions were placed in a 35° C. incubator for 24 to 72 hours. Bacterial colonies on each plate were counted and the average taken then changed into log format. Any cfu/ml observed greater than 3.3×10^5 (log=5.5) were recorded as >3.3×10^5.
The tube was then taken out of the experiment and tested for ATCC strain 43300 Staphylococcus growth. The tube was spun down at 5000 rpm for 10 minutes. The supernatant was then decanted into 90 mls of Mueller-Hinton broth with 6 μg/ml oxacillin. This is for enrichment and the recovery of any MRSA cells that may be present whether healthy or stressed. The pellet had 10 mls Mueller-Hinton broth with 6 μg/ml oxacillin added to it to recover any cells that may be present. Both vessels were incubated at 35° C. for 48 hours followed by plating every 24 hours. Each vessel was plated at 10 dilutions to obtain a 1 cfu detection limit.

CS(C)(=O)=O [MSM, Methylsulfonylmethane]
survival, Average Log (30 μg/ml oxacillin + MSM (% in label), 24 hours, listed as 8% MSM): 3.07 Log | survival, Average Log (30 μg/ml oxacillin + MSM (% in label), 24 hours, listed as 9% MSM): 3.01 Log | survival, Average Log (30 μg/ml oxacillin + MSM (% in label), 24 hours, listed as 10% MSM): 3.32 Log | survival, Average Log (30 μg/ml oxacillin + MSM (% in label), 24 hours, listed as 11% MSM): 3.57 Log | survival, Average Log (30 μg/ml oxacillin + MSM (% in label), 24 hours, listed as 12% MSM): 3.59 Log | survival, Average Log (30 μg/ml oxacillin + MSM (% in label), 24 hours, listed as 13% MSM): 3.62 Log | survival, Average Log (30 μg/ml oxacillin + MSM (% in label), 24 hours, listed as 14% MSM): 3.78 Log | survival, Average Log (30 μg/ml oxacillin + MSM (% in label), 24 hours, listed as 15% MSM): 3.94 Log | survival, Average Log (30 μg/ml oxacillin + MSM (% in label), 24 hours, listed as 16% MSM): 3.91 Log | survival, Average Log (30 μg/ml oxacillin + MSM (% in label), 48 hours, listed as 5% MSM): 3.8 Log | survival, Average Log (30 μg/ml oxacillin + MSM (% in label), 48 hours, listed as 6% MSM): 3.7 Log | survival, Average Log (30 μg/ml oxacillin + MSM (% in label), 48 hours, listed as 7% MSM): 2.3 Log | survival, Average Log (30 μg/ml oxacillin + MSM (% in label), 48 hours, listed as 8% MSM): 3.1 Log | survival, Average Log (30 μg/ml oxacillin + MSM (% in label), 48 hours, listed as 9% MSM): 2.4 Log | survival, Average Log (30 μg/ml oxacillin + MSM (% in label), 48 hours, listed as 10% MSM): 2.6 Log | survival, Average Log (30 μg/ml oxacillin + MSM (% in label), 48 hours, listed as 11% MSM): 2.4 Log | survival, Average Log (30 μg/ml oxacillin + MSM (% in label), 48 hours, listed as 12% MSM): 2.6 Log | survival, Average Log (30 μg/ml oxacillin + MSM (% in label), 48 hours, listed as 13% MSM): 2.5 Log | survival, Average Log (30 μg/ml oxacillin + MSM (% in label), 48 hours, listed as 14% MSM): 2.5 Log | survival, Average Log (30 μg/ml oxacillin + MSM (% in label), 48 hours, listed as 15% MSM): 2.8 Log | survival, Average Log (30 μg/ml oxacillin + MSM (% in label), 48 hours, listed as 16% MSM): 2.6 Log | survival, Average Log (30 μg/ml oxacillin + MSM (% in label), 72 hours, listed as 5% MSM): 5.5 Log | survival, Average Log (30 μg/ml oxacillin + MSM (% in label), 72 hours, listed as 6% MSM): 5.5 Log | survival, Average Log (30 μg/ml oxacillin + MSM (% in label), 72 hours, listed as 7% MSM): 4.5 Log | survival, Average Log (30 μg/ml oxacillin + MSM (% in label), 72 hours, listed as 8% MSM): 5.5 Log | survival, Average Log (30 μg/ml oxacillin + MSM (% in label), 72 hours, listed as 9% MSM): 2.9 Log | survival, Average Log (30 μg/ml oxacillin + MSM (% in label), 72 hours, listed as 10% MSM): 3.9 Log | survival, Average Log (30 μg/ml oxacillin + MSM (% in label), 72 hours, listed as 11% MSM): 3.2 Log | survival, Average Log (30 μg/ml oxacillin + MSM (% in label), 72 hours, listed as 12% MSM): 2.6 Log | survival, Average Log (30 μg/ml oxacillin + MSM (% in label), 72 hours, listed as 13% MSM): 1.8 Log | survival, Average Log (30 μg/ml oxacillin + MSM (% in label), 72 hours, listed as 14% MSM): 2.2 Log | survival, Average Log (30 μg/ml oxacillin + MSM (% in label), 72 hours, listed as 15% MSM): 2.4 Log | survival, Average Log (30 μg/ml oxacillin + MSM (% in label), 72 hours, listed as 16% MSM): 1.9 Log | recovery after enrichment in Mueller-Hinton broth (30 μg/ml oxacillin, 120 hours): total kill | survival, Average Log (60 μg/ml oxacillin + MSM (% in label), 24 hours, listed as 5% MSM): 2.54 Log | survival, Average Log (60 μg/ml oxacillin + MSM (% in label), 24 hours, listed as 6% MSM): 2.38 Log | survival, Average Log (60 μg/ml oxacillin + MSM (% in label), 24 hours, listed as 7% MSM): 2.34 Log | survival, Average Log (60 μg/ml oxacillin + MSM (% in label), 24 hours, listed as 8% MSM): 2.67 Log | survival, Average Log (60 μg/ml oxacillin + MSM (% in label), 24 hours, listed as 9% MSM): 2.50 Log | survival, Average Log (60 μg/ml oxacillin + MSM (% in label), 24 hours, listed as 10% MSM): 2.63 Log | survival, Average Log (60 μg/ml oxacillin + MSM (% in label), 24 hours, listed as 11% MSM): 2.83 Log | survival, Average Log (60 μg/ml oxacillin + MSM (% in label), 24 hours, listed as 12% MSM): 2.86 Log | survival, Average Log (60 μg/ml oxacillin + MSM (% in label), 24 hours, listed as 13% MSM): 2.80 Log | survival, Average Log (60 μg/ml oxacillin + MSM (% in label), 24 hours, listed as 14% MSM): 2.03 Log | survival, Average Log (60 μg/ml oxacillin + MSM (% in label), 24 hours, listed as 15% MSM): 3.81 Log | survival, Average Log (60 μg/ml oxacillin + MSM (% in label), 24 hours, listed as 16% MSM): 3.83 Log | survival, Average Log (60 μg/ml oxacillin + MSM (% in label), 48 hours, listed as 5% MSM): 3.5 Log | survival, Average Log (60 μg/ml oxacillin + MSM (% in label), 48 hours, listed as 6% MSM): 1.8 Log | survival, Average Log (60 μg/ml oxacillin + MSM (% in label), 48 hours, listed as 7% MSM): 4.0 Log | survival, Average Log (60 μg/ml oxacillin + MSM (% in label), 48 hours, listed as 8% MSM): 2.8 Log | survival, Average Log (60 μg/ml oxacillin + MSM (% in label), 48 hours, listed as 9% MSM): 2.2 Log | survival, Average Log (60 μg/ml oxacillin + MSM (% in label), 48 hours, listed as 10% MSM): 2.2 Log | survival, Average Log (60 μg/ml oxacillin + MSM (% in label), 48 hours, listed as 11% MSM): 2.1 Log | survival, Average Log (60 μg/ml oxacillin + MSM (% in label), 48 hours, listed as 12% MSM): 2.0 Log | survival, Average Log (60 μg/ml oxacillin + MSM (% in label), 48 hours, listed as 13% MSM): 1.7 Log | survival, Average Log (60 μg/ml oxacillin + MSM (% in label), 48 hours, listed as 14% MSM): 2.2 Log | survival, Average Log (60 μg/ml oxacillin + MSM (% in label), 48 hours, listed as 15% MSM): 2.1 Log | survival, Average Log (60 μg/ml oxacillin + MSM (% in label), 48 hours, listed as 16% MSM): 1.9 Log | survival, Average Log (60 μg/ml oxacillin + MSM (% in label), 72 hours, listed as 11% MSM): 1 Log | survival, Average Log (60 μg/ml oxacillin + MSM (% in label), 72 hours, listed as 12% MSM): 2.4 Log | survival, Average Log (60 μg/ml oxacillin + MSM (% in label), 72 hours, listed as 13% MSM): 1 Log | survival, Average Log (60 μg/ml oxacillin + MSM (% in label), 72 hours, listed as 14% MSM): 1.5 Log | survival, Average Log (60 μg/ml oxacillin + MSM (% in label), 72 hours, listed as 16% MSM): 1.8 Log | log reduction in the number of cfu/ml (60 μg/ml oxacillin, 24 hours): 3.5 log | recovery after enrichment in Mueller-Hinton broth (60 μg/ml oxacillin, 72 hours): total kill | recovery after enrichment in Mueller-Hinton broth (60 μg/ml oxacillin, 96 hours): total kill | recovery after enrichment in Mueller-Hinton broth (60 μg/ml oxacillin, 120 hours): total kill | growth (positive 5%, 10%, and 16% MSM controls, no antibiotic, 24 hours): signs of turbid growth
